The text below walks through data of US9597436B2, “Advanced heart failure treatment material as myocardial/cardiovascular regeneration device” (Osaka University, priority 2012, dated 2017).

Experiment [1] relates to coculture of NHDF and HUVEC. The experiment is described as follows: Internal regeneration factors under coculture of NHDF and HUVEC. The format is cell-based, human. From the text:
The compound 1 is a low molecular […] having the non-PG skeleton, and TXA2 synthase inhibitory action as well as selective IP agonist action is integrated into the molecule.

Experiment [2] has as its system fibroblasts. Conditions: cited from earlier work.
Experiment [3] relates to acute hepatopathy induced by carbon tetrachloride. Conditions: cited from earlier work.

Structures are written as SMILES.

As for `O=C(O)COc1cccc2c1CCC=C2CCO/N=C(\c1ccccc1)c1cccnc1` [Compound 1, (E)-[5-[2-[1-phenyl-1-(3-pyridyl)methylideneaminoxy]ethyl]-7,8-dihydronaphthalen-1-yloxy]acetic acid], in experiment [1], the “internal regeneration factors (HGF, VEGF, EGF, IGF-1, SDF-1, G-CSF)” value is “indicates various types of internal regeneration factors”. For the same compound, the “migration, proliferation, and collagen production of fibroblasts” value in experiment [2] is listed as “suppresses”. For the same compound, the “phosphorylation of ERK1/2” value in experiment [2] (progressed due to pathology, by activation of cAMP/PKA) was “suppresses”. Moreover, in experiment [3], the “hepatocyte protection (anti-apoptotic and anti-necrosis action)” value is “exhibits hepatocyte protection effects”; the “increases in ALT and AST in blood” value is “suppresses”.
